Measured values reported in PMC12452389, “Arginine-Derived Cationic Surfactants Containing Phenylalanine and Tryptophan: Evaluation of Antifungal Activity, Biofilm Eradication, Cytotoxicity, and Ecotoxicity” (Journal of Xenobiotics, 2025).
Counter-ions that a name gives are not always drawn. Like-named read-outs stand apart in the source and are kept apart here. Peptide text beside a SMILES is read from it. * marks the point of attachment. Lauroyl = CCCCCCCCCCCC(=O)*

Key:
[1] = parameters: method as in PMID 36559096; conditions: CO2 Headspace test, pass level 60%; cited from earlier work
3T3 cells [2] = test: Cytotoxicity, Neutral Red Uptake (NRU) assay; format: cell-based, Swiss mouse; conditions: 3T3, NRU, 24 h; moderate toxicity (TANHC12, PANHC12), onset of dramatic toxicity (PNHC12)
Description: (§1) Immortal human keratinocyte cells (HaCaT) and […] (3T3) were obtained from Celltec, University of Barcelona. Dulbecco’s Modified Eagle Medium (DMEM) (4.5 g/L glucose) supplemented with 10% (v/v) FBS, 2 mM L-glutamine, 100 U/mL of penicillin, and 100 μg/mL of streptomycin was used to grow the cells in 75 cm^2 culture flasks at 37 °C with a continuous supply of CO2 at a 5% level. Once cells reached about 80% confluence, they were trypsinized with trypsin-EDTA.
(§2) Cells were first grown into the central 60 wells of a 96-well plate under 5% CO2 at 37 °C for 24 h. The DMEM was removed, and cells were exposed to different concentrations of each amphiphile diluted in DMEM supplemented with 5% FBS for 24 h. Finally, two different assays for quantification were used.
(§3) The NRU assay is based on the accumulation of neutral red dye within the lysosomes of viable, intact cells. Once the cells were incubated with the surfactants, the DMEM was removed, and the NRU dye solution (50 μg/mL dissolved in the medium without FBS and phenol red) was added to each well, and the reaction was allowed for 2 h. The cells were washed with PBS, and 100 μL of an aqueous solution containing 50% absolute ethanol and 1% acetic acid was then added to each well to extract the incorporated dye. The microplates were then stirred for 5 min at 25 °C to facilitate dissolution. Finally, the absorbance of the resulting solutions was measured at λ = 550 nm using a Bio-Rad 550 microplate reader (Hercules, CA, USA).
(§4) The cytotoxic effects of these cationic surfactants were also evaluated using two different cell lines. The use of in vitro cytotoxicity tests is increasing daily, driven by the rise in human exposure to chemicals, as these tests are less costly and time-consuming than in vivo methods. The purpose of in vitro cytotoxicity tests is to detect the biocompatibility of these new surfactants. In this work, the cellular response upon incubation with the different surfactant series was evaluated in two representative skin cell lines: Swiss mouse fibroblasts (3T3 cell line) and human-derived keratinocytes (HaCaT cell line). The in vitro cytotoxicity was determined using the MTT as a measure of mitochondrial activity and the Neutral Red Uptake (NRU) related to lysosomal integrity, which are the most commonly used in vitro cytotoxicity endpoint methods. The cellular response at different concentrations (5, 25, 50, and 100 µM) was evaluated after 24 h of incubation.

C. tropicalis biofilms = test: Eradication of mature biofilm, MTT method; format: cell-based, Candida tropicalis; conditions: 24 h treatment
Description: (§5) Candida strains were cultured in SBA at 30 °C for 24 h. Yeast cells were then suspended in RPMI 1640 broth to a final concentration of 1.5 × 10^7 CFU/mL. For mature biofilm formation, 200 μL of these suspensions was transferred to each well of a 48-well microplate and incubated at 30 °C for 24 h. After incubation, the plate was washed with phosphate-buffered saline (PBS) to remove non-adherent cells. Then, surfactant solutions at various concentrations (200 μL), prepared in RPMI 1640, were added to the wells containing the mature biofilms. Plates were incubated again at 30 °C for 24 h. Following this treatment, the RPMI medium was removed, and wells were washed twice with PBS. To assess biofilm viability, 200 μL of MTT solution (3-(4,5-dimethylthiazol-2-yl)-2,5-diphenyltetrazolium bromide) were added to each well, and plates were incubated for 4 h. After incubation, the MTT solution was removed, and 200 μL of dimethyl sulfoxide (DMSO) were added to solubilize the formazan crystals. Absorbance at 540 nm (A540) was then measured using a microplate reader. Controls without the amino acid-based surfactants were included. All experiments were made in quadruplicate, and the results were averaged to ensure accuracy and reproducibility.
(§6) In this section, we have tested the ability of these cationic surfactants to eradicate mature fungal biofilms of C. albicans and C. tropicalis. Preformed biofilms of these two strains on 48-well plates were exposed to various concentrations of the synthesized surfactants, and the biofilm was not removed after the treatment was quantified using the MTT method (3-[4,5-dimethylthiazol-2-yl]-2,5 diphenyl tetrazolium bromide) (Figure 4). This method detects viable and metabolically active cells within the biofilm by measuring the reduction in MTT to formazan by active mitochondrial enzymes.

C. albicans biofilms = test: Eradication of mature biofilm, MTT method; format: cell-based, Candida albicans; conditions: for concentration removing the total viability of the biofilm: 24 h treatment
Description: as §5, §6

Cytotoxicity, MTT assay [3] = format: cell-based, Swiss mouse; conditions: mouse, 3T3 fibroblast cells, 3T3, MTT, read-out: cell viability; for viability at 24 h, 50 µg/mL: at 50 µg/mL; for viability at 24 h, 100 µg/mL: at 100 µg/mL
Description: as §1, §2
(§7) This method relies on the ability of living cells to reduce the yellow MTT reagent into insoluble purple formazan crystals. After the cells were incubated with the surfactants’ solutions, the medium was eliminated, and 100 μL of MTT in PBS (5 mg/mL) diluted 1:10 in culture medium (without phenol red and FBS) was added to each well and co-incubated for 3 h. Then, the medium was discarded, and DMSO was added into each well to solubilize the formazan crystals. Finally, the absorbance of the resulting solutions was measured at 550 nm using a microplate reader (Bio-Rad 550 Hercules, CA, USA).
as §4

[4] = Cytotoxicity, Neutral Red Uptake (NRU) assay; format: cell-based, Swiss mouse; conditions: mouse, 3T3 fibroblast cells, 3T3, NRU, across the full concentration range, read-out: cell viability
Description: as §1, §2, §3, §4

Cytotoxicity, MTT assay [5] = format: cell-based; conditions: human, HaCaT keratinocyte cells, read-out: cell viability; for viability at 24 h, 50 µg/mL: at 50 µg/mL
Description: as §1, §2, §7
as §4, with “The use of in vitro cytotoxicity tests is increasing daily, driven by the rise in human exposure to chemicals, as these tests are less costly and time-consuming than in vivo methods. The purpose of in vitro cytotoxicity tests is to detect the biocompatibility of these new surfactants.” left out

3T3 cells [6] = test: Cytotoxicity, MTT assay; format: cell-based, Swiss mouse; conditions: Mus musculus, NIH3T3; 3T3, MTT, 24 h; read from viability curves
Description: as §1, §2, §7, §4

| SMILES | biodegradation [1] | concentration at which toxicity was seen (3T3 cells [2]) | concentration removing the total viability of the biofilm (C. tropicalis biofilms) | concentration removing the total viability of the biofilm (C. albicans biofilms) | further results |
| --- | --- | --- | --- | --- | --- |
| CCCCCCCCCCCCNC(=O)C(CCCNC(=N)N)NC(=O)C(N)Cc1c[nH]c2ccccc12 (centres unmarked) [TANHC12] | did not reach this pass level | around 50 µg/mL | – | – | – |
| CCCCCCCCCCCCCCNC(=O)C(CCCNC(=N)N)NC(=O)C(N)Cc1ccccc1 (centres unmarked) [PANHC14] | – | – | ≈ 50 μM | ≈ 50 μM | – |
| CCCCCCCCCCCC(=O)NC(CCCNC(=N)N)C(=O)OC (centres unmarked) [C12AM] | over 60% | – | – | – | viability at 24 h (Cytotoxicity, MTT assay [3]; across all concentrations up to 100 µg/mL): > 85%; viability at 24 h [4]: 100%; viability at 24 h, 50 µg/mL (Cytotoxicity, MTT assay [5]): ~90% |
| CCCCCCCCCCCCNC(=O)C(N)Cc1ccccc1 (centres unmarked) [PNHC12, phenylalanine dodecyl amide hydrochloride] | did not reach this pass level | 5000 ng/mL | – | – | viability at 24 h, 50 µg/mL (Cytotoxicity, MTT assay [3]): ~0%; IC50 (3T3 cells [6]): < 50 µg/mL; viability at 24 h, 50 µg/mL (Cytotoxicity, MTT assay [5]): 0% |
| CCCCCCCCCCNC(=O)C(CCCNC(=N)N)NC(=O)C(N)Cc1c[nH]c2ccccc12 (centres unmarked) [TANHC10] | – | – | – | – | viability at 24 h (Cytotoxicity, MTT assay [5]; across the concentration range (TANHCn series)): ~80% |
| CCCCCCCCCCNC(=O)C(CCCNC(=N)N)NC(=O)C(N)Cc1ccccc1 (centres unmarked) [PANHC10] | – | – | ≈ 400 μM | ≈ 400 μM | – |
| CCCCCCCCCCCCNC(=O)C(CCCNC(=N)N)NC(=O)C(N)Cc1ccccc1 (centres unmarked) [PANHC12, phenylalanine-arginine dodecyl amide dihydrochloride] | did not reach this pass level | around 50 µg/mL | ≈ 50 μM | ≈ 50 μM | viability at 24 h, 50 µg/mL (Cytotoxicity, MTT assay [3]): ~70%; viability at 24 h, 100 µg/mL (Cytotoxicity, MTT assay [3]): 5% |
| CCCCCCCCCCCC(=O)NC(Cc1ccccc1)C(=O)NC(CCCNC(=N)N)C(=O)OC (stereo not drawn) [C12PAM] (Lauroyl-Phe-Arg-OMe; configuration not given here) | over 60% | – | – | – | reduction of the metabolic activity of the biofilm (C. albicans biofilms; highest concentration tested): less than 65%; viability at 24 h, 100 µg/mL (Cytotoxicity, MTT assay [3]): ~60%; viability at 24 h [4]: 60 to 100% |
